Laboratory results as given in patent US12570696B2, “Tumor-specific polypeptide sequence and use thereof” (SHENZHEN GINO BIOTECHNOLOGY CO., LTD., priority 2019, dated 2026).
Where “and” joins values, the source holds several entries; their conditions need not be identical. Identical values can stand only once.

Legend:
[1] = system: HCC827 subcutaneous tumor model; assay: DC polypeptide vaccine in mouse subcutaneous transplanted tumor model; assay type: in vivo, NOD/SCID mice; details: polypeptide-loaded DC cells, intradermal, 2 injections; compared with wild-type and blank polypeptide-loaded DC groups; FIG. 5
Excerpt: (§1) This model was used to verify the tumor control effect of the polypeptide pharmaceutical combination, the antigen-presenting cell, and the vaccine proposed by the present disclosure. • 1. The encoding gene of each polypeptide was introduced by lentivirus transfection, and the recombinant lentivirus expressing the above-mentioned mutant polypeptide or a variant thereof was constructed and packaged. • 2. Construction of human-derived lung cancer cell line expressing the polypeptides
The human lung cancer cell line HCC827 was purchased from ATCC (No: CRL-2868), and its HLA subtype was HLA-A*1101 positive. Cells were cultured in DMEM medium containing 10% fetal bovine serum, 100 U/mL penicillin and streptomycin, in an incubator at 37° C., 5% CO2. The packaged lentivirus was transfected into the HCC827 cell line, and antibiotic puromycin was used to continuously screen the surviving HCC827 cell line, and finally the HCC827 cell line expressing the polypeptides was established. • 3. NOD SCID mouse human immune reconstitution […]
(§2) The established human lung cancer cell line was cultured in DMEM medium containing 10% fetal bovine serum, 100 U/mL penicillin and streptomycin, in an incubator at 37° C., 5% CO2. […] The subcutaneous tumor model NOD/SCID mice with immune reconstitution for 4 weeks were treated with DC vaccine, and the tumor volumes were recorded every 3 to 4 days. […]

[2] = system: CD8+ T cells; assay: ELISPOT verification of activation of CD8+ T cell immune response (IFN-gamma secretion); assay type: cell-based, human
Procedure: (§3) The peripheral blood mononuclear cells (PBMCs) were collected from the volunteers who were positive for the corresponding subtype of the polypeptide. For 2×10^7 PBMCs, mononuclear cells were separated by using the adherent method (adhered for 3 h), and CD8^+ T cells were isolated by using CD8 magnetic beads. The adherent mononuclear cells were induced to immature DC cells by using GM-CSF (1000 U/ml) and IL-4 (1000 U/ml). Then, the adherent cells were induced into polypeptide-specific mature DC cells by IFN-gamma (100 U/ml), LPS (10 ng/ml), and the respective polypeptides. The obtained polypeptide-specific mature DC cells were co-cultured with volunteers' CD8^+ T cells, and IL-21 was added. After 3 days, IL-2 and IL-7 were supplemented. Thereafter, IL-2 and IL-7 were supplemented on day 5 and day 7, and on day 10, the co-cultured cells were counted, and the subsequent ELISPOTs and LDH were detected.
The ELISPOT method is an enzyme-linked immunospot assay, which can detect the cytokines secreted by a single cell. In the assay, the culture plate was coated with specific monoclonal antibodies, and then the cells to be detected and antigenic stimulant were added for culture. Under the stimulation of the stimulant, the corresponding cytokines were secreted by the T cells, and the secreted cytokines were captured by the antibodies coated on the culture plate. After washing away the cells, the captured cytokines were bonded to […] secondary antibodies to form spots. […]
With reference to the specification in the ELISPOT kit, the cells cultured in Example 4, T2 cells loaded with testing polypeptide ([…], SEQ ID NO: 2), and T2 cells loaded with irrelevant polypeptide (referring to a polypeptide not stimulating T cells to secrete IFN-gamma interferon and having a specific sequence of […], the irrelevant polypeptide used in the following examples also refers to this sequence) were added respectively to the ELISPOT plate for cultivation, and ELISPOTs were detected after 20 hours (see the specification of the ELISPOT kit). […]

[3] = system: T2 cells; assay: LDH release assay of polypeptide-specific killing activity of CD8+ T cells; assay type: cell-based; details: triplicate wells
Procedure: as §3
LDH is an enzyme present in the cytoplasm. LDH will be released into the culture medium when the cell membrane is damaged. Since the released LDH is stable, the measured amount of LDH in the medium can be used as an indicator to measure the number of dead and damaged cells.
The cells cultured in Example 4 were co-cultured with the T2 cells loaded with the testing polypeptide or the irrelevant polypeptide or no polypeptide. In the assay, maximum release wells, volume correction wells, medium control wells, spontaneous release wells, different effect-target ratios (the ratio of the number of T cells to the number of T2 cells) were set, triplicated wells for each group. After 4 hours, 50 μl of the co-cultured cell supernatant was taken and added to 50 μl of LDH substrate mixture, allowing the cell supernatant to catalyze the LDH substrate reaction, finally reading at the wavelength of 490 nm and the reference wavelength of 680 nm. Based on the control wells, the killing activity of […] killing T2 cells was calculated. The greater the value shown in Table 4, the stronger the killing effect.

[4] = system: HCC827 subcutaneous tumor model; assay: Polypeptide vaccine in mouse subcutaneous transplanted tumor model; assay type: in vivo, NOD/SCID mice; details: polypeptide + Freund's adjuvant, 4 immunizations, compared with wild-type polypeptide group and adjuvant group, FIG. 4
Excerpt: as §1
(§4) The human lung cancer cell line HCC827 was purchased from ATCC (No: CRL-2868), and its HLA subtype was HLA-A*1101 positive. Cells were cultured in DMEM medium containing 10% fetal bovine serum, 100 U/mL penicillin and streptomycin, in an incubator at 37° C., 5% CO2. […]
as §2
The first immunization dosage of the polypeptide of each group was […] per mouse. […] After the injection, the vital signs of the mice were observed, and the vertical and horizontal sizes of the tumor were measured with a vernier caliper every 3 to 4 days. […]

[5] = biological target: T1, MHC I molecules on the surfaces of T2 cells (HLA-A*11:01) (Homo sapiens, UniProt P04439, A114D/D185E/E176A/F33Y/L180Q/S129P/T187R); assay: Verification of affinity of polypeptide with T2 cells (flow cytometry, fluorescence index); assay type: cell-based
T1 construct: endogenous in cells; host or cells: T2 cells
Excerpt: T2 cells are a necessary antigen polypeptide transporter-deficient cell line in the endogenous antigen presentation pathway, and can be used to study the strength of the mutual recognition with MHC molecules in the antigen presentation process.
In order to verify the affinity of exogenous polypeptides with T2 cells, a polypeptide that had been confirmed to have strong affinity with T2 cells was used as positive control, and T2 cells without adding polypeptides were used as background control. […] Based on this, the affinity of the polypeptide with T2 cells is determined. The higher the FI value, the stronger the affinity of the polypeptide with T2 cells, which is conducive to the subsequent recognition of specific CD8^+ T cells.
The synthesized polypeptides were added to 2*10^5 T2 cells, and human β2 micro-globulin (with a final concentration of 3 μg/ml) was added and cultivated in 24-well plate. The plate was cultured in an incubator (37° C., 5% CO2) overnight. […] (SEQ ID NO: 9), which is a viral peptide and is also a known polypeptide with strong affinity with T2 cells, was used as a positive control, duplicate wells for each experiment, and the average value was calculated.
[…] for 5 minutes to collect the cells. […] The mean fluorescence intensity was then detected and analyzed by a flow cytometer (BD FACSJazz™) and its software, see FIG. 2.

[6] = system: HCC827 subcutaneous tumor model; assay: Polypeptide-specific DC-CTL vaccine in mouse subcutaneous transplanted tumor model; assay type: in vivo, NOD/SCID mice; details: polypeptide-activated CTLs reinfused through the tail vein; compared with blank polypeptide and wild-type polypeptide groups; FIG. 6
Excerpt: as §1, §4
The established human lung cancer cell line was cultured in DMEM medium containing 10% fetal bovine serum, 100 U/mL penicillin and streptomycin, in an incubator at 37° C., 5% CO2. […] The subcutaneous tumor model NOD/SCID mice with immune reconstitution for 4 weeks were treated with DC vaccine, and the tumor volumes were recorded every 3 to 4 days.
The PBLs collected in Example 9 were sorted by magnetic beads to obtain CD8^+ T cells. […] The culture medium was incubated with 500 IU/ml IL-2 and 50 ng/ml IL-7, in an incubator at 37° C. with 5% CO2, and the cells were counted after 1 week of culture. […]

RHGGWTTK (Mutant polypeptide)
Mouse tumor growth (tumor volume), polypeptide-loaded DC vaccine [1]: can significantly slow down the mouse tumor growth
Number of spots produced by using irrelevant polypeptide as stimulant ([2]; IFN-gamma ELISPOT, T2 cells loaded with irrelevant polypeptide LSYRNKPSI, 20 hours): 11
Number of spots produced by using testing polypeptide as stimulant ([2]; IFN-gamma ELISPOT, T2 cells loaded with testing polypeptide, 20 hours): 104
Multiple (testing/irrelevant) ([2]; ratio of spot numbers, >=2 regarded as having immunogenicity): 9
Killing activity, T + T2 (loaded with no polypeptide) ([3]; E:T = 1:1, 4 hours): 0.322 and 0.279 and 0.298
Killing activity, T + T2 + irrelevant polypeptide ([3]; E:T = 1:1, 4 hours): 0.278 and 0.293 and 0.308
Killing activity, T + T2 + testing polypeptide ([3]; E:T = 1:1, 4 hours): 0.324 and 0.351
Killing activity, T + T2 (loaded with no polypeptide) ([3]; E:T = 10:1, 4 hours): 0.413 and 0.352 and 0.364
Killing activity, T + T2 + irrelevant polypeptide ([3]; E:T = 10:1, 4 hours): 0.436 and 0.371 and 0.407
Killing activity, T + T2 + testing polypeptide ([3]; E:T = 10:1, 4 hours): 0.406 and 0.397 and 0.414
Mouse tumor growth (tumor volume), polypeptide vaccine [4]: can significantly slow down the mouse tumor growth
Conclusion (T2 cell affinity) ([5]; compared with the positive control): High affinity
FI ([5]; fluorescence index, T2 cells, overnight, FITC anti-HLA-A*11:01 antibody, flow cytometry): 2.12
Mouse tumor growth (tumor volume), DC-CTL vaccine [6]: can significantly slow down the mouse tumor growth
